# Like-named read-outs stand apart in the source and are kept apart here.
# Legend:
# [1] = system: E. coli GC 2236; experiment: MIC, broth microdilution; conditions: Escherichia coli
# [2] = system: E. coli GC 2235; experiment: MIC, broth microdilution; conditions: Escherichia coli
# [3] = system: E. coli GC 2233; experiment: MIC, broth microdilution; conditions: Escherichia coli
# [4] = system: E. coli GC 2270; experiment: MIC, broth microdilution; conditions: Escherichia coli
# [5] = system: E. coli GC 2271; experiment: MIC, broth microdilution; conditions: Escherichia coli
# [6] = system: E. coli GC 4559; experiment: MIC, broth microdilution; conditions: Escherichia coli
# [7] = system: E. coli GC 4560; experiment: MIC, broth microdilution; conditions: Escherichia coli
# [8] = system: E. coli GC 6465; experiment: MIC, broth microdilution; conditions: Escherichia coli
# Method: Antimicrobial susceptibility testing. The in vitro activities of the antibiotics are determined by the broth microdilution method as recommended by the National Committee for Clinical Laboratory Standards (NCCLS) (1). Mueller-Hinton II broth (MHBII)(BBL Cockeysville, Md.) is the medium employed in the testing procedures. Microtiter plates containing serial dilutions of each antimicrobial agent are inoculated with each organism to yield the appropriate density (10^5 CFU/ml) in a 100 μl final volume. The plates are incubated for 18-22 hours at 35° C. in ambient air.
# Representative compounds were first incubated in mouse serum for an hour prior to the in vitro testing against a panel of selected gram-positive and gram-negative bacteria strains. All compounds were also pre-incubated in water for an hour prior to testing as control.
# [9] = system: E. coli GC 2203; experiment: MIC, broth microdilution; conditions: Escherichia coli
# Method: Antimicrobial susceptibility testing. The in vitro activities of the antibiotics are determined by the broth microdilution method as recommended by the National Committee for Clinical Laboratory Standards (NCCLS) (1). Mueller-Hinton II broth (MHBII)(BBL Cockeysville, Md.) is the medium employed in the testing procedures. Microtiter plates containing serial dilutions of each antimicrobial agent are inoculated with each organism to yield the appropriate density (10^5 CFU/ml) in a 100 μl final volume. The plates are incubated for 18-22 hours at 35° C. in ambient air. […] Standard Pharmacological Test Procedures
# Presented in Tables I-XIII are representative compounds of Formula I which were evaluated against a panel of 40 selected gram-positive and gram-negative bacteria strains by pre-incubation in water, mouse serum or human serum. Representative compounds were first incubated in mouse serum for an hour prior to the in vitro testing against a panel of selected gram-positive and gram-negative bacteria strains. All compounds were also pre-incubated in water for an hour prior to testing as control. Representative compounds of Formula I were incubated in human serum prior to MIC determination.
# [10] = system: E. coli GC 1073; experiment: MIC, broth microdilution; conditions: Escherichia coli
# [11] = system: P. aeruginosa GC 2214; experiment: MIC, broth microdilution; conditions: Pseudomonas aeruginosa
# [12] = system: S. aureus GC 6467; experiment: MIC, broth microdilution; conditions: Staphylococcus aureus
# [13] = system: S. aureus GC 4536; experiment: MIC, broth microdilution; conditions: Staphylococcus aureus
# [14] = system: S. aureus GC 6469; experiment: MIC, broth microdilution; conditions: Staphylococcus aureus
# [15] = system: E. faecalis GC 4555; experiment: MIC, broth microdilution; conditions: Enterococcus faecalis
# [16] = system: E. faecalis GC 2265; experiment: MIC, broth microdilution; conditions: Enterococcus faecalis
# [17] = system: E. faecalis GC 2242; experiment: MIC, broth microdilution; conditions: Enterococcus faecalis
# [18] = system: S. agalactiae GC 4564; experiment: MIC, broth microdilution; conditions: Streptococcus agalactiae
# [19] = system: E. coli; experiment: Range of MIC for E. coli strains; conditions: Escherichia coli
# [20] = system: Staph.; experiment: Range of MIC for Staph. strains, including MRSA; conditions: Staphylococcus aureus, MRSA
# [21] = 20 h, read-out: Range of MIC, E. coli (Mouse Serum)
# [22] = read-out: Range of MIC, E. coli (Water)
# [23] = read-out: Range of MIC, Staph (Mouse Serum)
# [24] = GC2236, E. coli GC 2236, Mouse Serum pre-incubation
# [25] = GC2236, E. coli GC 2236, Water pre-incubation
# [26] = GC2235, E. coli GC 2235, Mouse Serum pre-incubation
# [27] = GC2235, E. coli GC 2235, Water pre-incubation
# [28] = GC2233, E. coli GC 2233, Mouse Serum pre-incubation
# [29] = GC2233, E. coli GC 2233, Water pre-incubation
# [30] = GC2270, E. coli GC 2270, Mouse Serum pre-incubation
# [31] = GC2270, E. coli GC 2270, Water pre-incubation
# [32] = GC2271, E. coli GC 2271, Mouse Serum pre-incubation
# [33] = GC2271, E. coli GC 2271, Water pre-incubation
# [34] = GC4559, E. coli GC 4559, Mouse Serum pre-incubation
# [35] = GC4559, E. coli GC 4559, Water pre-incubation
# [36] = GC4560, E. coli GC 4560, Mouse Serum pre-incubation
# [37] = GC4560, E. coli GC 4560, Water pre-incubation
# [38] = GC6465, E. coli GC 6465, Mouse Serum pre-incubation
# [39] = GC6465, E. coli GC 6465, Water pre-incubation
# [40] = GC2203, E. coli GC 2203, Mouse Serum pre-incubation
# [41] = GC2203, E. coli GC 2203, Water pre-incubation
# [42] = GC1073, E. coli GC 1073, Mouse Serum pre-incubation
# [43] = GC1073, E. coli GC 1073, Water pre-incubation
# [44] = GC2214, P. aeruginosa GC 2214, Mouse Serum pre-incubation
# [45] = GC2214, P. aeruginosa GC 2214, Water pre-incubation
# [46] = GC6467, S. aureus GC 6467, Mouse Serum pre-incubation
# [47] = GC6467, S. aureus GC 6467, Water pre-incubation
# [48] = GC4536, S. aureus GC 4536, Mouse Serum pre-incubation
# [49] = GC4536, S. aureus GC 4536, Water pre-incubation
# [50] = GC6469, S. aureus GC 6469, Mouse Serum pre-incubation
# [51] = GC6469, S. aureus GC 6469, Water pre-incubation
# [52] = GC4555, E. faecalis GC 4555, Mouse Serum pre-incubation
# [53] = GC4555, E. faecalis GC 4555, Water pre-incubation
# [54] = GC2265, E. faecalis GC 2265, Mouse Serum pre-incubation
# [55] = GC2265, E. faecalis GC 2265, Water pre-incubation
# [56] = GC2242, E. faecalis GC 2242, Mouse Serum pre-incubation
# [57] = GC2242, E. faecalis GC 2242, Water pre-incubation
# [58] = GC4564, S. agalactiae GC 4564, Mouse Serum pre-incubation
# [59] = GC4564, S. agalactiae GC 4564, Water pre-incubation
# [60] = read-out: Minimum inhibitory concentration (MIC), E. coli (mouse serum)
# [61] = read-out: Minimum inhibitory concentration (MIC), E. coli (water)
# [62] = read-out: Minimum inhibitory concentration (MIC), Staph. (mouse serum)
# [63] = read-out: Minimum inhibitory concentration (MIC), Staph. (water)
# [64] = read-out: Range of MIC, Staph (Water)
smiles,measurement,setting,value
"CCCN(CC(=O)Nc1cc(N(C)C)c2c(c1O)C(=O)C1=C(O)[C@]3(O)C(=O)C(C(N)=O)=C(O)C(N(C)C)C3CC1C2)C(=O)OCc1oc(=O)oc1-c1ccccc1 (stereo in doubt) [Example 110, (2-oxo-5-phenyl-1,3-dioxol-4-yl)methyl 2-{[(7R,10aS)-9-(aminocarbonyl)-4,7-bis(dimethylamino)-1,8,10a,11-tetrahydroxy-10,12-dioxo-5,5a,6,6a,7,10,10a,12-octahydrotetracen-2-yl]amino}-2-oxoethyl(propyl)carbamate]",MIC,"[1]; GC2236, pre-incubation in mouse serum",1 µg/mL
same,MIC,"[1]; GC2236, pre-incubation in water",2 µg/mL
same,MIC,"[2]; GC2235, pre-incubation in mouse serum",0.5 µg/mL
same,MIC,"[2]; GC2235, pre-incubation in water",1 µg/mL
same,MIC,"[3]; GC2233, pre-incubation in mouse serum",0.5 µg/mL
same,MIC,"[3]; GC2233, pre-incubation in water",1 µg/mL
same,MIC,"[4]; GC2270, pre-incubation in mouse serum",1 µg/mL
same,MIC,"[4]; GC2270, pre-incubation in water",1 µg/mL
same,MIC,"[5]; GC2271, pre-incubation in mouse serum",1 µg/mL
same,MIC,"[5]; GC2271, pre-incubation in water",2 µg/mL
same,MIC,"[6]; GC4559, pre-incubation in mouse serum",2 µg/mL
same,MIC,"[6]; GC4559, pre-incubation in water",2 µg/mL
same,MIC,"[7]; GC4560, pre-incubation in mouse serum",0.25 µg/mL
same,MIC,"[7]; GC4560, pre-incubation in water",0.5 µg/mL
same,MIC,"[8]; GC6465, pre-incubation in mouse serum",64 µg/mL
same,MIC,"[8]; GC6465, pre-incubation in water",> 64 µg/mL
same,MIC,"[9]; GC2203, pre-incubation in mouse serum",1 µg/mL
same,MIC,"[9]; GC2203, pre-incubation in water",4 µg/mL
same,MIC,"[10]; GC1073, pre-incubation in mouse serum",2 µg/mL
same,MIC,"[10]; GC1073, pre-incubation in water",8 µg/mL
same,MIC,"[11]; GC2214, pre-incubation in mouse serum",> 64 µg/mL
same,MIC,"[11]; GC2214, pre-incubation in water",> 64 µg/mL
same,MIC,"[12]; GC6467, pre-incubation in mouse serum",32 µg/mL
same,MIC,"[12]; GC6467, pre-incubation in water",> 64 µg/mL
same,MIC,"[13]; GC4536, pre-incubation in mouse serum",4 µg/mL
same,MIC,"[13]; GC4536, pre-incubation in water",4 µg/mL
same,MIC,"[14]; GC6469, pre-incubation in mouse serum",32 µg/mL
same,MIC,"[14]; GC6469, pre-incubation in water",32 µg/mL
same,MIC,"[15]; GC4555, pre-incubation in mouse serum",1 µg/mL
same,MIC,"[15]; GC4555, pre-incubation in water",2 µg/mL
same,MIC,"[16]; GC2265, pre-incubation in mouse serum",8 µg/mL
same,MIC,"[16]; GC2265, pre-incubation in water",4 µg/mL
same,MIC,"[17]; GC2242, pre-incubation in mouse serum",1 µg/mL
same,MIC,"[17]; GC2242, pre-incubation in water",1 µg/mL
same,MIC,"[18]; GC4564, pre-incubation in mouse serum",0.25 µg/mL
same,MIC,"[18]; GC4564, pre-incubation in water",0.25 µg/mL
same,MIC,[19]; [21],0.5 to 4 µg/mL
same,MIC,[19]; [22],1 to 8 µg/mL
same,MIC,[20]; [23],1 to 32 µg/mL
"CCCCN(CC(=O)Nc1cc(N(C)C)c2c(c1O)C(=O)C1=C(O)[C@]3(O)C(=O)C(C(N)=O)=C(O)[C@@H](N(C)C)C3CC1C2)C(=O)OCOC(=O)C(C)C (stereo partly drawn) [Example 1, ({[(2-{[(7S,10aS)-9-(aminocarbonyl)-4,7-bis(dimethylamino)-1,8,10a,11-tetrahydroxy-10,12-dioxo-5,5a,6,6a,7,10,10a,12-octahydrotetracen-2-yl]amino}-2-oxoethyl)(butyl)amino]carbonyl}oxy)methyl 2-methylpropanoate]",MIC,[1]; [24],1 µg/mL
same,MIC,[1]; [25],16 µg/mL
same,MIC,[2]; [26],0.5 µg/mL
same,MIC,[2]; [27],16 µg/mL
same,MIC,[3]; [28],1 µg/mL
same,MIC,[3]; [29],16 µg/mL
same,MIC,[4]; [30],0.5 µg/mL
same,MIC,[4]; [31],16 µg/mL
same,MIC,[5]; [32],0.5 µg/mL
same,MIC,[5]; [33],16 µg/mL
same,MIC,[6]; [34],1 µg/mL
same,MIC,[6]; [35],32 µg/mL
same,MIC,[7]; [36],0.5 µg/mL
same,MIC,[7]; [37],2 µg/mL
same,MIC,[8]; [38],8 µg/mL
same,MIC,[8]; [39],> 64 µg/mL
same,MIC,[9]; [40],0.5 µg/mL
same,MIC,[9]; [41],16 µg/mL
same,MIC,[10]; [42],1 µg/mL
same,MIC,[10]; [43],32 µg/mL
same,MIC,[11]; [44],32 µg/mL
same,MIC,[11]; [45],> 64 µg/mL
same,MIC,[12]; [46],4 µg/mL
same,MIC,[12]; [47],4 µg/mL
same,MIC,[13]; [48],2 µg/mL
same,MIC,[13]; [49],4 µg/mL
same,MIC,[14]; [50],2 µg/mL
same,MIC,[14]; [51],8 µg/mL
same,MIC,[15]; [52],1 µg/mL
same,MIC,[15]; [53],4 µg/mL
same,MIC,[16]; [54],1 µg/mL
same,MIC,[16]; [55],4 µg/mL
same,MIC,[17]; [56],1 µg/mL
same,MIC,[17]; [57],4 µg/mL
same,MIC,[18]; [58],0.5 µg/mL
same,MIC,[18]; [59],1 µg/mL
same,MIC,[19]; [21],0.5 to 1 µg/mL
same,MIC,[19]; [60],0.5 to 1 µg/mL
same,MIC,[19]; [61],16 to 64 µg/mL
same,MIC,[19]; [22],16 to 64 µg/mL
same,MIC,[20]; [62],1 to 4 µg/mL
same,MIC,[20]; [63],1 to 8 µg/mL
same,MIC,[20]; [23],1 to 4 µg/mL
same,MIC,[20]; [64],1 to 8 µg/mL
"CCCCN(CC(=O)Nc1cc(N(C)C)c2c(c1O)C(=O)C1=C(O)[C@]3(O)C(=O)C(C(N)=O)=C(O)[C@@H](N(C)C)C3CC1C2)C(=O)OCOC(=O)c1ccc(OC)cc1 (stereo partly drawn) [Example 2, ({[(2-{[(7S,10aS)-9-(aminocarbonyl)-4,7-bis(dimethylamino)-1,8,10a,11-tetrahydroxy-10,12-dioxo-5,5a,6,6a,7,10,10a,12-octahydrotetracen-2-yl]amino}-2-oxoethyl)(butyl)amino]carbonyl}oxy)methyl 4-methoxybenzoate]",MIC,[1]; [24],4 µg/mL
same,MIC,[1]; [25],32 µg/mL
same,MIC,[2]; [26],2 µg/mL
same,MIC,[2]; [27],64 µg/mL
same,MIC,[3]; [28],1 µg/mL
same,MIC,[3]; [29],64 µg/mL
same,MIC,[4]; [30],1 µg/mL
same,MIC,[4]; [31],64 µg/mL
same,MIC,[5]; [32],1 µg/mL
same,MIC,[5]; [33],64 µg/mL
same,MIC,[6]; [34],1 µg/mL
same,MIC,[6]; [35],64 µg/mL
same,MIC,[7]; [36],0.25 µg/mL
same,MIC,[7]; [37],4 µg/mL
same,MIC,[8]; [38],8 µg/mL
same,MIC,[8]; [39],64 µg/mL
same,MIC,[9]; [40],2 µg/mL
same,MIC,[9]; [41],64 µg/mL
same,MIC,[10]; [42],4 µg/mL
same,MIC,[10]; [43],64 µg/mL
same,MIC,[11]; [44],> 64 µg/mL
same,MIC,[11]; [45],> 64 µg/mL
same,MIC,[12]; [46],4 µg/mL
same,MIC,[12]; [47],8 µg/mL
same,MIC,[13]; [48],2 µg/mL
same,MIC,[13]; [49],4 µg/mL
same,MIC,[14]; [50],2 µg/mL
same,MIC,[14]; [51],4 µg/mL
same,MIC,[15]; [52],2 µg/mL
same,MIC,[15]; [53],4 µg/mL
same,MIC,[16]; [54],4 µg/mL
same,MIC,[16]; [55],8 µg/mL
same,MIC,[17]; [56],4 µg/mL
same,MIC,[17]; [57],4 µg/mL
same,MIC,[18]; [58],2 µg/mL
same,MIC,[18]; [59],2 µg/mL
same,MIC,[19]; [21],1 to 4 µg/mL
same,MIC,[19]; [60],1 to 4 µg/mL
same,MIC,[19]; [61],32 to 64 µg/mL
same,MIC,[19]; [22],32 to 64 µg/mL
same,MIC,[20]; [62],1 to 8 µg/mL
same,MIC,[20]; [63],2 to 8 µg/mL
same,MIC,[20]; [23],1 to 8 µg/mL
same,MIC,[20]; [64],2 to 8 µg/mL

# Source: patent US20070049564A1 (Wyeth, priority 2005, published 2007)
